Data published in patent US20250176599A1, “FLAVOR COMPOSITION AND FOOD AND BEVERAGE” (TAKASAGO INTERNATIONAL CORPORATION, priority 2021, published 2025).

Columns and labels:
[1] = Sensory evaluation of aqueous solution I containing (E)-2-nonenal 1 ppb: off-flavor intensity and masking component intensity; details: average panel score
Experimental: (§1) In ion-exchanged water, each degradation component was added to achieve the concentrations listed in Table 1, and aqueous solutions I to VI containing these degradation components were prepared.
(§2) For the aforementioned aqueous solutions containing degradation components, nootkatone was added at the concentrations listed in Table 2 to confirm the intensity of the off-flavor (masking effect) in each sample and the intensity of the masking component itself (the impact on the flavor of the food and/or beverage itself).
(§3) The test was conducted as follows. Eight experienced panelists were selected to conduct a sensory evaluation. The intensity of the off-flavor of the aqueous solution containing the degradation components derived from unsaturated fatty acids, without added masking components, was set as “Evaluation: 4.” The ion-exchanged water free of any degradation components was set as “Evaluation: 0.” The intensity of the off-flavor (masking effect) of each sample was then relatively evaluated according to the following evaluation criteria.
(§4) • Off-flavor is strongly sensed: 4 points • Off-flavor is sensed: 3 points • Off-flavor is slightly sensed: 2 points • Off-flavor is barely sensed: 1 point • Off-flavor is not sensed at all: 0 points
(§5) Also, the intensity of the masking components (impact on the flavor of the food and/or beverage itself) was absolutely evaluated according to the following evaluation criteria.
(§6) • Masking component is strongly sensed: 4 points • Masking component is sensed: 3 points • Masking component is slightly sensed: 2 points • Masking component is barely sensed: 1 point • Masking component is not sensed at all: 0 points

[2] = Sensory evaluation of aqueous solution II containing (E)-2-octenal 10 ppb: off-flavor intensity and masking component intensity; details: average panel score
Experimental: as §1, §2, §3, §4, §5, §6

[3] = Sensory evaluation of aqueous solution III containing 1-octen-3-one 1 ppb: off-flavor intensity and masking component intensity; details: average panel score
Experimental: as §1, §2, §3, §4, §5, §6

[4] = Sensory evaluation of aqueous solution IV containing 1,5-octadien-3-one 100 ppt: off-flavor intensity and masking component intensity; details: aqueous solution IV, average panel score
Experimental: as §1, §2, §3, §4, §5, §6

[5] = Sensory evaluation of aqueous solution V containing 1-octen-3-ol 10 ppb: off-flavor intensity and masking component intensity; details: average panel score
Experimental: as §1, §2, §3, §4, §5, §6

[6] = Sensory evaluation of aqueous solution VI containing 1,5-octadien-3-ol 10 ppb: off-flavor intensity and masking component intensity; details: aqueous solution VI, average panel score
Experimental: as §1, §2, §3, §4, §5, §6

[7] = Overall conclusion of the sensory evaluation across aqueous solutions I to VI
Experimental: as §1, §2, §3, §4, §5, §6

SMILES: CC(C)C=C(C=O)c1ccccc1 [4-methyl-2-phenyl-2-pentenal]
- Masking Component Intensity ([1]; 1 ppb added): 0.5
- Off-Flavor Intensity ([1]; 1 ppb added): 2.8
- Masking Component Intensity ([1]; 1 ppm added): 1.9
- Off-Flavor Intensity ([1]; 1 ppm added): 1.6
- Masking Component Intensity ([1]; 5 ppm added): 2.9
- Off-Flavor Intensity ([1]; 5 ppm added): 1.1
- Masking Component Intensity ([1]; 10 ppb added): 0.9
- Off-Flavor Intensity ([1]; 10 ppb added): 2.3
- Masking Component Intensity ([1]; 10 ppm added): 3.8
- Off-Flavor Intensity ([1]; 10 ppm added): 0.5
- Masking Component Intensity ([1]; 50 ppm added): 4.0
- Off-Flavor Intensity ([1]; 50 ppm added): 0.3
- Masking Component Intensity ([1]; 100 ppb added): 1.4
- Off-Flavor Intensity ([1]; 100 ppb added): 1.8
- Masking Component Intensity ([1]; 100 ppt added): 0.4
- Off-Flavor Intensity ([1]; 100 ppt added): 3.3
- Masking Component Intensity ([2]; 1 ppb added): 0.5
- Off-Flavor Intensity ([2]; 1 ppb added): 2.8
- Masking Component Intensity ([2]; 1 ppm added): 2.1
- Off-Flavor Intensity ([2]; 1 ppm added): 1.6
- Masking Component Intensity ([2]; 5 ppm added): 2.6
- Off-Flavor Intensity ([2]; 5 ppm added): 1.4
- Masking Component Intensity ([2]; 10 ppb added): 1.1
- Off-Flavor Intensity ([2]; 10 ppb added): 2.5
- Masking Component Intensity ([2]; 10 ppm added): 3.4
- Off-Flavor Intensity ([2]; 10 ppm added): 1.0
- Masking Component Intensity ([2]; 50 ppm added): 3.9
- Off-Flavor Intensity ([2]; 50 ppm added): 0.6
- Masking Component Intensity ([2]; 100 ppb added): 1.6
- Off-Flavor Intensity ([2]; 100 ppb added): 2.0
- Masking Component Intensity ([2]; 100 ppt added): 0.4
- Off-Flavor Intensity ([2]; 100 ppt added): 3.0
- Masking Component Intensity ([3]; 1 ppb added): 0.9
- Off-Flavor Intensity ([3]; 1 ppb added): 3.4
- Masking Component Intensity ([3]; 1 ppm added): 2.5
- Off-Flavor Intensity ([3]; 1 ppm added): 2.1
- Masking Component Intensity ([3]; 5 ppm added): 3.0
- Off-Flavor Intensity ([3]; 5 ppm added): 1.8
- Masking Component Intensity ([3]; 10 ppb added): 1.4
- Off-Flavor Intensity ([3]; 10 ppb added): 3.1
- Masking Component Intensity ([3]; 10 ppm added): 3.5
- Off-Flavor Intensity ([3]; 10 ppm added): 1.6
- Masking Component Intensity ([3]; 50 ppm added): 3.8
- Off-Flavor Intensity ([3]; 50 ppm added): 1.3
- Masking Component Intensity ([3]; 100 ppb added): 1.8
- Off-Flavor Intensity ([3]; 100 ppb added): 2.6
- Masking Component Intensity ([3]; 100 ppt added): 0.5
- Off-Flavor Intensity ([3]; 100 ppt added): 3.6
- Masking Component Intensity ([4]; 1 ppb added): 0.4
- Off-Flavor Intensity ([4]; 1 ppb added): 3.6
- Masking Component Intensity ([4]; 1 ppm added): 1.9
- Off-Flavor Intensity ([4]; 1 ppm added): 2.3
- Masking Component Intensity ([4]; 5 ppm added): 2.3
- Off-Flavor Intensity ([4]; 5 ppm added): 2.0
- Masking Component Intensity ([4]; 10 ppb added): 1.0
- Off-Flavor Intensity ([4]; 10 ppb added): 3.0
- Masking Component Intensity ([4]; 10 ppm added): 3.0
- Off-Flavor Intensity ([4]; 10 ppm added): 1.4
- Masking Component Intensity ([4]; 50 ppm added): 3.6
- Off-Flavor Intensity ([4]; 50 ppm added): 1.0
- Masking Component Intensity ([4]; 100 ppb added): 1.4
- Off-Flavor Intensity ([4]; 100 ppb added): 2.6
- Masking Component Intensity ([4]; 100 ppt added): 0.3
- Off-Flavor Intensity ([4]; 100 ppt added): 3.6
- Masking Component Intensity ([5]; 1 ppb added): 0.8
- Off-Flavor Intensity ([5]; 1 ppb added): 2.3
- Masking Component Intensity ([5]; 1 ppm added): 2.4
- Off-Flavor Intensity ([5]; 1 ppm added): 1.1
- Masking Component Intensity ([5]; 5 ppm added): 2.8
- Off-Flavor Intensity ([5]; 5 ppm added): 0.8
- Masking Component Intensity ([5]; 10 ppb added): 1.4
- Off-Flavor Intensity ([5]; 10 ppb added): 1.8
- Masking Component Intensity ([5]; 10 ppm added): 3.5
- Off-Flavor Intensity ([5]; 10 ppm added): 0.6
- Masking Component Intensity ([5]; 50 ppm added): 3.9
- Off-Flavor Intensity ([5]; 50 ppm added): 0.5
- Masking Component Intensity ([5]; 100 ppb added): 1.6
- Off-Flavor Intensity ([5]; 100 ppb added): 1.6
- Masking Component Intensity ([5]; 100 ppt added): 0.6
- Off-Flavor Intensity ([5]; 100 ppt added): 2.8
- Masking Component Intensity ([6]; 1 ppb added): 0.3
- Off-Flavor Intensity ([6]; 1 ppb added): 1.8
- Masking Component Intensity ([6]; 1 ppm added): 1.8
- Off-Flavor Intensity ([6]; 1 ppm added): 0.9
- Masking Component Intensity ([6]; 5 ppm added): 2.4
- Off-Flavor Intensity ([6]; 5 ppm added): 0.4
- Masking Component Intensity ([6]; 10 ppb added): 0.8
- Off-Flavor Intensity ([6]; 10 ppb added): 1.4
- Masking Component Intensity ([6]; 10 ppm added): 3.1
- Off-Flavor Intensity ([6]; 10 ppm added): 0.4
- Masking Component Intensity ([6]; 50 ppm added): 3.5
- Off-Flavor Intensity ([6]; 50 ppm added): 0.1
- Masking Component Intensity ([6]; 100 ppb added): 1.3
- Off-Flavor Intensity ([6]; 100 ppb added): 1.0
- Masking Component Intensity ([6]; 100 ppt added): 0.0
- Off-Flavor Intensity ([6]; 100 ppt added): 2.1
- concentration that masks the off-flavor and does not affect the flavor of the food and/or beverage itself, lower limit [7]: ≥ 100 ppt
- concentration that masks the off-flavor and does not affect the flavor of the food and/or beverage itself, upper limit [7]: ≤ 10 ppm
